Reference: the supplement of paper PMC10627819

How the values were obtained:
Conditions in all cases: main component drawn
[1] = system: S. aureus DSM 20231; experiment: Bliss interaction score (quartile over a dose matrix) (fitness difference); higher = more antagonism (negative = synergy)
How it was run: (§1)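 The Bliss score takes observed fitness and subtracts the expected fitness, calculated as a product of single-drug fitness values. Those single-drug values were inferred from the combination data. Fitness is OD595 at entry into stationary phase divided by the plate's robust no-drug mean, capped at 1, and the score is summarised by quartiles across technical, biological and donor/recipient replicates.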

[2] = system: S. pneumoniae D39V; experiment: as above
How it was run: as §1

[3] = system: S. aureus Newman; experiment: as above
How it was run: as §1

[4] = system: B. subtilis 168; experiment: as above
How it was run: as §1

[5] = system: S. pneumoniae D39V; experiment: fitness (endpoint OD595 vs no drug) (fraction); higher = more growth
How it was run: (§2)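 Plates with 384 wells were inoculated at OD595 0.01 using 30 µl of TSB, LB Lennox or CY, or 55 µl for S. pneumoniae. Incubation was at 37 °C, with OD595 measured every 30 min for 14 h. Fitness is the stationary-phase transition optical density over the robust mean of no-drug control wells, after first-reading background subtraction; it is capped at 1.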

[6] = system: B. subtilis 168; experiment: as above
How it was run: as §2

[7] = system: S. aureus Newman; experiment: as above
How it was run: as §2
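Throughout, for Bliss interaction score (quartile over a dose matrix): first quartile when negative (synergy) and third quartile when positive (antagonism).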

CNC(C)C1CCC(N)C(OC2C(N)CC(N)C(OC3OCC(C)(O)C(NC)C3O)C2O)O1 (stereo unspecified) [Gentamicin] + CC(=O)NC[C@H]1CN(c2ccc(N3CCOCC3)c(F)c2)C(=O)O1 [Linezolid]
Conditions	Bliss interaction score
[1]	0.0779
[2]	-0.136
[3]	0.0901
[4]	0.144

fitness, [5]
Conditions	partner 0.105 µg/mL	partner 0.2 µg/mL	partner 0.21 µg/mL	partner 0.4 µg/mL	partner 0.42 µg/mL	partner 0.8 µg/mL
first compound 2 µg/mL	0.881	0.414	0.767	0.228	0.636	0.0665
first compound 4 µg/mL	0.908	0.408	0.759	0.215	0.6	0.0715
first compound 8 µg/mL	0.843	0.37	0.758	0.212	0.579	0.0595

[6], partner 0.0625 µg/mL, one replicate
Conditions	fitness
first compound 0.0625 µg/mL	0.827
first compound 0.125 µg/mL	0.0748
first compound 0.25 µg/mL	0.0626

CNC(C)C1CCC(N)C(OC2C(N)CC(N)C(OC3OCC(C)(O)C(NC)C3O)C2O)O1 (stereo unspecified) [Gentamicin] + CCC(C)C1C(=O)NC(=C)C(=O)NC(C(=O)NC(CSCC(C(=O)N1)NC(=O)/C(=C/C)/NC(=O)C(C(C)CC)N)C(=O)NC2C(SCC(NC(=O)CNC(=O)C3CCCN3C2=O)C(=O)NC(CCCCN)C(=O)NC4C(SCC(NC(=O)CNC(=O)C(NC(=O)C(NC(=O)C(NC(=O)CNC4=O)C)CC(C)C)CCSC)C(=O)NC(CC(=O)N)C(=O)NC(CCSC)C(=O)NC(CCCCN)C(=O)NC5C(SCC6C(=O)NC(C(=O)NC(CSC(C(C(=O)N6)NC(=O)C(NC5=O)C)C)C(=O)NC(CO)C(=O)NC(C(C)CC)C(=O)NC(CC7=CN=CN7)C(=O)NC(C(C)C)C(=O)NC(=C)C(=O)NC(CCCCN)C(=O)O)CC8=CN=CN8)C)C)C)CC(C)C [Nisin]
Conditions	Bliss interaction score
[1]	0.227
[2]	-0.0396
[3]	0.0431
[4]	-0.0796

Conditions	fitness
[5], first compound 2 µg/mL, partner 0.4275 µg/mL	0.957
[5], first compound 2 µg/mL, partner 0.855 µg/mL	≥ 1
[5], first compound 2 µg/mL, partner 1.6 µg/mL	0.0179
[5], first compound 2 µg/mL, partner 1.71 µg/mL	0.0948
[5], first compound 2 µg/mL, partner 3.2 µg/mL	0.0145
[5], first compound 2 µg/mL, partner 6.4 µg/mL	0.0183
[5], first compound 4 µg/mL, partner 0.4275 µg/mL	0.999
[5], first compound 4 µg/mL, partner 0.855 µg/mL	≥ 1
[5], first compound 4 µg/mL, partner 1.6 µg/mL	0.0111
[5], first compound 4 µg/mL, partner 1.71 µg/mL	0.07
[5], first compound 4 µg/mL, partner 3.2 µg/mL	0.0177
[5], first compound 4 µg/mL, partner 6.4 µg/mL	0.0081
[5], first compound 8 µg/mL, partner 0.4275 µg/mL	0.99
[5], first compound 8 µg/mL, partner 0.855 µg/mL	0.986
[5], first compound 8 µg/mL, partner 1.6 µg/mL	0.0051
[5], first compound 8 µg/mL, partner 1.71 µg/mL	0.0917
[5], first compound 8 µg/mL, partner 3.2 µg/mL	0.0325
[5], first compound 8 µg/mL, partner 6.4 µg/mL	0.0106
[6], first compound 0.0625 µg/mL, partner 0.5 µg/mL	0.865
[6], first compound 0.0625 µg/mL, partner 1 µg/mL	0.793
[6], first compound 0.125 µg/mL, partner 0.5 µg/mL	0.768
[6], first compound 0.125 µg/mL, partner 2 µg/mL	0.213
[6], first compound 0.25 µg/mL, partner 0.5 µg/mL	0.27
[6], first compound 0.25 µg/mL, partner 1 µg/mL	0.102
[6], first compound 0.25 µg/mL, partner 2 µg/mL	0.057

fitness, [6], one replicate
Conditions	partner 1.25 µg/mL	partner 1.6 µg/mL	partner 2.5 µg/mL	partner 3.2 µg/mL	partner 4 µg/mL	partner 5 µg/mL	partner 6.4 µg/mL	partner 8 µg/mL	partner 16 µg/mL
first compound 0.0625 µg/mL	0.861	0.703	0.037	0.0387	0.0303	0.0263	0.0574	0.0215	0.0053
first compound 0.125 µg/mL	0.378	0.504	0.0311	0.0535	0.0234	0.0338	0.0847	0.0224	0.0101
first compound 0.25 µg/mL	0.078	0.0505	0.0563	0.0642	0.0357	0.0313	0.0596	0.0124	0.007

CNC(C)C1CCC(N)C(OC2C(N)CC(N)C(OC3OCC(C)(O)C(NC)C3O)C2O)O1 (stereo unspecified) [Gentamicin] + CCCCCCCCCC(=O)N[C@@H]1[C@H]([C@@H]([C@H](O[C@H]1OC2=C3C=C4C=C2OC5=C(C=C(C=C5)[C@H]([C@H]6C(=O)N[C@@H](C7=C(C(=CC(=C7)O)OC8[C@H]([C@H]([C@@H]([C@H](O8)CO)O)O)O)C9=C(C=CC(=C9)[C@H](C(=O)N6)NC(=O)[C@@H]4NC(=O)[C@@H]1C2=CC(=CC(=C2)OC2=C(C=CC(=C2)[C@H](C(=O)N[C@H](CC2=CC(=C(O3)C=C2)Cl)C(=O)N1)N)O)O)O)C(=O)O)O[C@H]1[C@@H]([C@H]([C@@H]([C@H](O1)CO)O)O)NC(=O)C)Cl)CO)O)O [Teicoplanin]
Conditions	Bliss interaction score
[1]	-0.0694
[2]	0.0694
[3]	-0.0337
[4]	-0.13

fitness, [7], one replicate
Conditions	first compound 0.375 µg/mL	first compound 0.75 µg/mL	first compound 1 µg/mL	first compound 1.5 µg/mL	first compound 2 µg/mL	first compound 4 µg/mL
partner 0.1562 µg/mL	≥ 1	≥ 1	–	≥ 1	–	–
partner 0.3125 µg/mL	≥ 1	≥ 1	–	≥ 1	–	–
partner 0.62 µg/mL	–	–	0.748	–	0.37	0.0704
partner 0.625 µg/mL	0.861	0.851	–	0.875	–	–
partner 1.24 µg/mL	–	–	0.616	–	0.0206	0.0307
partner 2.48 µg/mL	–	–	0.0707	–	0.0793	0.0765

fitness, [7]
Conditions	first compound 0.5 µg/mL	first compound 1 µg/mL	first compound 2 µg/mL
partner 0.1562 µg/mL	≥ 1	≥ 1	≥ 1
partner 0.3125 µg/mL	≥ 1	≥ 1	≥ 1
partner 0.625 µg/mL	≥ 1	≥ 1	≥ 1

CNC(C)C1CCC(N)C(OC2C(N)CC(N)C(OC3OCC(C)(O)C(NC)C3O)C2O)O1 (stereo unspecified) [Gentamicin] + CCC[C@@H]1C[C@@H](C(=O)N[C@@H]([C@H]2O[C@H](SC)[C@H](O)[C@@H](O)[C@H]2O)[C@@H](C)O)N(C)C1 [Lincomycin]
Conditions	Bliss interaction score
[1]	0.106
[2]	-0.0859
[3]	0.0735
[4]	0.1

fitness
Conditions	partner 0.1 µg/mL	partner 0.2 µg/mL	partner 0.215 µg/mL	partner 0.4 µg/mL	partner 0.43 µg/mL	partner 0.8 µg/mL	partner 0.86 µg/mL
[5], first compound 2 µg/mL	–	0.465	0.858	0.285	0.795	0.0324	0.558
[5], first compound 4 µg/mL	–	0.455	0.843	0.257	0.716	0.0339	0.397
[5], first compound 8 µg/mL	–	0.389	0.834	0.212	0.741	0.0377	0.41
[6], first compound 0.0625 µg/mL	0.851	0.858	–	0.911	–	–	–
[6], first compound 0.25 µg/mL	0.038	0.0459	–	0.121	–	–	–

fitness, [6], one replicate
Conditions	first compound 0.0625 µg/mL	first compound 0.125 µg/mL	first compound 0.25 µg/mL
partner 0.8 µg/mL	0.989	0.881	0.32
partner 1.6 µg/mL	0.921	0.895	0.367
